Here are results for twelve molecules from ChEMBL document CHEMBL3407411, “Evaluating the risk of phospholipidosis using a new multidisciplinary pipeline approach” (Eur J Med Chem, 2015).

The structures appear in SMILES notation.

What all share (format): cell-based
What all share (settings): hepg2, 24 h

For data set [1], the system named is HepG2. Description: Cytotoxicity against human HepG2 cells assessed as NBD-PC phospholipid accumulation at 0.1 to 100 uM after 24 hrs by Hoechst 33342 normalization-based fluorescence assay.
The test system of data set [2] is HepG2. Description: Cytotoxicity against human HepG2 cells assessed as reduction in cell viability after 24 hrs by Neutral red uptake assay.
Data set [3] deals with HepG2. The experiment in a line: Cytotoxicity against human HepG2 cells assessed as reduction in cell viability at >/= 50 uM after 24 hrs by Neutral red uptake assay.
Data set [4] concerns HepG2. Description: Cytotoxicity against human HepG2 cells assessed as disruption of membrane integrity at >= 50 uM after 24 hrs by LDH release assay. (In general: Release of lactate dehydrogenase indicates damage to the cell membrane.)
The subject of data set [5] is HepG2. The experiment in a line: Cytotoxicity against human HepG2 cells assessed as NBD-PC phospholipid accumulation after 24 hrs by Hoechst 33342 normalization-based fluorescence assay.
Data set [6] deals with HepG2. The experiment in a line: Cytotoxicity against human HepG2 cells at 100 uM after 24 hrs by Hoechst 33342 staining-based fluorescence assay.
In data set [7] the test system is HepG2. Description: Cytotoxicity against human HepG2 cells assessed as increase in lysosomal beta-hexosaminidase level at 50 to 100 uM after 24 hrs by MUG-based fluorescence assay.
The test system of data set [8] is HepG2. The experiment in a line: Cytotoxicity against human HepG2 cells assessed as increase in lysosomal beta-hexosaminidase level at 20 uM after 24 hrs by MUG-based fluorescence assay.
Data set [9] relates to HepG2. Description: Cytotoxicity against human HepG2 cells assessed as increase in lysosomal beta-hexosaminidase level at 35 uM after 24 hrs by MUG-based fluorescence assay.
The test system of data set [10] is HepG2. The experiment in a line: Cytotoxicity against human HepG2 cells assessed as disruption of membrane integrity at 20 uM after 24 hrs by LDH release assay.
The test system of data set [11] is HepG2. The experiment in a line: Cytotoxicity against human HepG2 cells assessed as disruption of membrane integrity at 35 uM after 24 hrs by LDH release assay.
Data set [12] has as its system HepG2. The experiment in a line: Cytotoxicity against human HepG2 cells assessed as formation of lysosomal inclusion bodies at 50 uM after 24 hrs by transmission electron microscopy.
In data set [13] the test system is HepG2. Description: Cytotoxicity against human HepG2 cells assessed as reduction in cell viability at 0.1 to 100 uM after 24 hrs by Neutral red uptake assay.
Data set [14] has as its system HepG2. The experiment in a line: Cytotoxicity against human HepG2 cells assessed as disruption of membrane integrity up to 100 uM after 24 hrs by LDH release assay.
The subject of data set [15] is HepG2. Description: Cytotoxicity against human HepG2 cells assessed as increase in lysosomal beta-hexosaminidase level at 10 to 100 uM after 24 hrs by MUG-based fluorescence assay.
Data set [16] deals with HepG2. The experiment in a line: Cytotoxicity against human HepG2 cells assessed as reduction in cell viability at 100 uM after 24 hrs by Neutral red uptake assay.

Consider `Clc1ccccc1CNC1CN2CCC1CC2` (stereo unspecified), for which the Activity entry with HepG2 [1] is on record as “Non-toxic”.
For `Cc1cccc(C)c1C(OCCN(C)C)C1CCCCC1` (stereo unspecified), the Activity entry in the data set with HepG2 [2] is listed as “Dose-dependent effect”; in the data set on HepG2 [3], “Toxic”; in the data set on HepG2 [4] it was “Toxic”; in the data set on HepG2 [5] it was “Dose-dependent effect”; with HepG2 [6] it was “Toxic”; in the data set with HepG2 [7] it was “Toxic”. Moreover, the Activity entry in the data set on HepG2 [8] is on record as “Toxic”; in the data set with HepG2 [9], “Toxic”; with HepG2 [10] it was “Non-toxic”; in the data set with HepG2 [11] it was “Non-toxic”; with HepG2 [12], “Toxic”.
`CCN(CC)CCNC1=Nc2ccccc2CCC1`: the Activity result in the data set on HepG2 [1] is “Non-toxic”; with HepG2 [7], “Toxic”; with HepG2 [12], “Toxic”.
Turning to `OC(CN1CCOCC1)c1csc2ccccc12` (stereo unspecified), the Activity result in the data set with HepG2 [13], in the data set on HepG2 [14] and in the data set on HepG2 [1] was “Non-toxic” in each case.
On to `CCOc1ccc(Br)cc1CNCC1CCNCC1`, for which the Activity result is given as “Dose-dependent effect” in the data set with HepG2 [2]; “Toxic” in the data set on HepG2 [3]; “Toxic” in the data set on HepG2 [4]; “Dose-dependent effect” in the data set on HepG2 [5]; “Toxic” with HepG2 [6]; “Toxic” in the data set on HepG2 [15]. The Activity result in the data set with HepG2 [12] is “Toxic”.
As to `CCN(CC)CCNCc1c(OC)ccc2ccccc12`, the Activity result is recorded as “Non-toxic” in the data set with HepG2 [16]; “Dose-dependent effect” with HepG2 [5]; “Non-toxic” in the data set on HepG2 [6]; “Toxic” in the data set on HepG2 [15]; “Toxic” in the data set with HepG2 [12].
Take `COc1ccc(CNCC(O)c2nnn(C)n2)cc1OC` (stereo unspecified): the Activity result in the data set on HepG2 [13] is “Non-toxic”; in the data set with HepG2 [14] it was “Non-toxic”; with HepG2 [1], “Toxic”; in the data set with HepG2 [12], “Toxic”.
With `c1cc(C[N+]23CN4CN(CN(C4)C2)C3)cs1`, the Activity result in the data set with HepG2 [13], in the data set on HepG2 [14] and with HepG2 [1] was “Non-toxic” each time.
Take `C1CN(CCN2CCOCC2)CCO1`: the Activity result with HepG2 [13], with HepG2 [14] and in the data set with HepG2 [1] was “Non-toxic” each time.
As for `CC1=NN(C(=O)c2nn(C)cc2[N+](=O)[O-])C(O)(C(F)(F)F)C1` (stereo unspecified), the Activity result in the data set with HepG2 [13], in the data set on HepG2 [14] and with HepG2 [1] was “Non-toxic” each time.
With `CCCCc1oc2ccccc2c1C(=O)c1cc(I)c(OCCN(CC)CC)c(I)c1` [AMIODARONE], the Activity result in the data set with HepG2 [2] is listed as “Dose-dependent effect”; in the data set with HepG2 [4], “Toxic”; with HepG2 [5], “Dose-dependent effect”; with HepG2 [6], “Toxic”; in the data set on HepG2 [7], “Toxic”.
As to `CN/C(=N/CCSCc1nc[nH]c1C)NC#N` [CIMETIDINE], the Activity entry with HepG2 [13], in the data set on HepG2 [14] and in the data set on HepG2 [1] was “Non-toxic” each time.
